Consider 14 compounds from patent US20260022142A1, “MACROCYCLIC IMMUNOMODULATORS” (Bristol-Myers Squibb Company, priority 2022, published 2026).

Numbered stars: 1 amine (or outer) side, 2 acyl side, 3 side chain; on linkers, the order of the positions; unused ones are H or OH. Bridge positions count the residues as written; N and C are the ends. Square brackets hold non-standard residues; d marks the D form. Peptide text beside a SMILES is read from it. * marks the point of attachment. ξ: configuration not given here. Bip = N[C@@H](Cc1ccc(-c2ccccc2)cc1)C(=O)O; Phe(3-Me) = Cc1cccc(C[C@H](N)C(=O)O)c1; X19 = O=C([C@@H]1CC(O)CN1[*:1])[*:2]; hArg = N=C(N)NCCCC[C@H](N)C(=O)O; Cha = N[C@@H](CC1CCCCC1)C(=O)O; Thr(3ξ) = CC(O)[C@H](N)C(=O)O; Carboxymethyl = O=C(O)C*; Orn = NCCC[C@H](N)C(=O)O; Aun = NCCCCCCCCCCC(=O)O; Dab = NCC[C@H](N)C(=O)O; Dap = NC[C@H](N)C(=O)O; AEEA = NCCOCCOCC(=O)O

T1 sequence (Q15116 25-288): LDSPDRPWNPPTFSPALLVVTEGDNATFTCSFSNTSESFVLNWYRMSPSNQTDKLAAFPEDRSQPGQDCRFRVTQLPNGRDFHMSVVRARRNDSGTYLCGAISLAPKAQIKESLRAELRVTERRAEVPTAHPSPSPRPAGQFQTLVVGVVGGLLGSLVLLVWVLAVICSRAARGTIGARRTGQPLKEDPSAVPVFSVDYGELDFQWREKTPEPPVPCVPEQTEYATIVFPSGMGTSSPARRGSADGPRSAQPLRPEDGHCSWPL

The assay addresses T1, PD-1/PD-L1 interaction (PE-labeled human PD-L1-Ig binding to Jurkat cell line over-expressing human PD-1) (Homo sapiens, UniProt Q15116).
T1 construct: expressed in transfected cells; host or cells: Jurkat
In words: Jurkat-PD-1 Cell Binding High-Content Screening Assay (CBA). Type of assay: cell-based. The following applies: Jurkat cell line over-expressing human PD-1; PE-labeled PD-L1-Ig 20 nM final; read-out: Jurkat hPD1-PDL1 IC50. The procedure, abridged: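 Read-out is high-content imaging of cell-bound phycoerythrin-tagged PD-L1-Ig on fixed, Hoechst-counterstained Jurkat cells that over-express human PD-1. Compound exposure lasts 2 h at 37° C before the labeled ligand (20 nM final) is added for a further hour.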
With `Cc1cccc(C[C@@H]2NC(=O)[C@H](CC(=O)O)NC(=O)[C@H](Cc3c[nH]cn3)NC(=O)[C@H](CCCCNC(=N)N)NC(=O)CSC[C@@H](C(=O)NCCOCCOCC(=O)NCCCCCCCCCCC(=O)O)NC(=O)[C@H](CCCN)NC(=O)[C@H](C(C)C)NC(=O)[C@H](CC3CCCCC3)NC(=O)[C@H](CCN)NC(=O)[C@@H](CC(C)C)NC(=O)[C@H](CCCN)NC(=O)[C@H](C(C)C)NC(=O)[C@H](Cc3ccc(-c4ccccc4)cc3)NC(=O)[C@H](C(C)C)NC2=O)c1` [Compound 3264] ({CH2CO}-[hArg]HD[Phe(3-Me)]V[Bip]V[Orn][dL][Dab][Cha]V[Orn]C[AEEA][Aun]-OH; thioether N-14), the IC50 (commonly the concentration at which inhibition is half-maximal) is 12.6 nM.

Take `CC(C)C[C@H]1NC(=O)[C@H](CCN)NC(=O)[C@H](C(C)C)NC(=O)[C@H](Cc2ccc(-c3ccccc3)cc2)NC(=O)[C@H](C(C)C)NC(=O)[C@H](Cc2c[nH]c3ccccc23)NC(=O)[C@H](CC(=O)O)NC(=O)[C@H](Cc2ccc(OCC(=O)O)cc2)NC(=O)[C@H](CCCCNC(=N)N)NC(=O)CSC[C@@H](C(=O)NCCOCCOCC(=O)NCCCCCCCCCCC(=O)O)NC(=O)[C@H](CCCN)NC(=O)[C@H](C(C)C)NC(=O)[C@H](CC2CCCCC2)NC(=O)[C@H](CCN)NC1=O` [Compound 3265] ({CH2CO}-[hArg]Y(Carboxymethyl)DWV[Bip]V[Dab][dL][Dab][Cha]V[Orn]C[AEEA][Aun]-OH; thioether N-14): the IC50 was 7.2 nM.

On to `CC(C)C[C@H]1NC(=O)[C@H](CN)NC(=O)[C@H](C(C)C)NC(=O)[C@H](Cc2ccc(-c3ccccc3)cc2)NC(=O)[C@H](C(C)C)NC(=O)[C@H](Cc2c[nH]c3ccccc23)NC(=O)[C@H](CC(=O)O)NC(=O)[C@H](Cc2ccc(OCC(=O)O)cc2)NC(=O)[C@H](CCCCNC(=N)N)NC(=O)CSC[C@@H](C(=O)NCCOCCOCC(=O)NCCCCCCCCCCC(=O)O)NC(=O)[C@H](CCCCN)NC(=O)[C@H](C(C)C)NC(=O)[C@H](CC2CCCCC2)NC(=O)[C@H](CCN)NC1=O` [Compound 3266] ({CH2CO}-[hArg]Y(Carboxymethyl)DWV[Bip]V[Dap][dL][Dab][Cha]VKC[AEEA][Aun]-OH; thioether N-14), for which the half-inhibitory concentration (IC50) amounted to 9.2 nM.

Regarding `CC(C)C[C@H]1NC(=O)[C@H](CCCN)NC(=O)[C@H](C(C)C)NC(=O)[C@H](Cc2ccc(-c3ccccc3)cc2)NC(=O)[C@H](C(C)C)NC(=O)[C@H](Cc2c[nH]c3ccccc23)NC(=O)[C@H](CC(=O)O)NC(=O)[C@H](Cc2ccc(OCC(=O)O)cc2)NC(=O)[C@H](CCCCNC(=N)N)NC(=O)CSC[C@@H](C(=O)N[C@@H](CCN)C(=O)NCCCCCCCCCCC(=O)O)NC(=O)[C@H](C(C)O)NC(=O)[C@H](C(C)C)NC(=O)[C@H](CC2CCCCC2)NC(=O)[C@H](CCN)NC1=O` (stereo partly drawn) [Compound 3267] ({CH2CO}-[hArg]Y(Carboxymethyl)DWV[Bip]V[Orn][dL][Dab][Cha]V[Thr(3ξ)]C[Dab][Aun]-OH; thioether N-14), the IC50 came out at 16.3 nM.

With `Cc1cccc(C[C@@H]2NC(=O)[C@H](CC(=O)O)NC(=O)[C@H](Cc3ccc(OCC(=O)O)cc3)NC(=O)[C@H](CCCCNC(=N)N)NC(=O)CSC[C@@H](C(=O)N[C@@H](CCCN)C(=O)N[C@@H](CO)C(=O)NCCCCCCCCCCC(=O)O)NC(=O)[C@H](C(C)O)NC(=O)[C@H](C(C)C)NC(=O)[C@H](CC3CCCCC3)NC(=O)[C@H](CCN)NC(=O)[C@@H](CC(C)C)NC(=O)[C@H](CCCN)NC(=O)[C@H](C(C)C)NC(=O)[C@H](Cc3ccc(-c4ccccc4)cc3)NC(=O)[C@H](C(C)C)NC2=O)c1` (stereo partly drawn) [Compound 3268] ({CH2CO}-[hArg]Y(Carboxymethyl)D[Phe(3-Me)]V[Bip]V[Orn][dL][Dab][Cha]V[Thr(3ξ)]C[Orn]S[Aun]-OH; thioether N-14), the concentration for half-maximal inhibition (IC50) is 8 nM.

On to `CC(C)C[C@H]1NC(=O)[C@H](CCCN)NC(=O)[C@H](C(C)C)NC(=O)[C@H](Cc2ccc(-c3ccccc3)cc2)NC(=O)[C@H](C(C)C)NC(=O)[C@H](Cc2c[nH]c3ccccc23)NC(=O)[C@H](CC(=O)O)NC(=O)[C@H](Cc2c[nH]cn2)NC(=O)[C@H](CCCCNC(=N)N)NC(=O)CSC[C@@H](C(=O)N[C@@H](CCN)C(=O)NCCCCCCCCCCC(=O)O)NC(=O)[C@H](CCN)NC(=O)[C@H](C(C)C)NC(=O)[C@H](CC2CCCCC2)NC(=O)[C@H](CCN)NC1=O` [Compound 3269] ({CH2CO}-[hArg]HDWV[Bip]V[Orn][dL][Dab][Cha]V[Dab]C[Dab][Aun]-OH; thioether N-14), for which the IC50 amounted to 65.5 nM.

Take `CC(C)C[C@H]1NC(=O)[C@H](CCCN)NC(=O)[C@H](C(C)C)NC(=O)[C@H](Cc2ccc(-c3ccccc3)cc2)NC(=O)[C@H](C(C)C)NC(=O)[C@H](Cc2c[nH]c3ccccc23)NC(=O)[C@H](CC(=O)O)NC(=O)[C@H](Cc2c[nH]cn2)NC(=O)[C@H](CCCCNC(=N)N)NC(=O)CSC[C@@H](C(=O)N[C@@H](CCN)C(=O)NCCCCCCCCCCC(=O)O)NC(=O)[C@H](CCCCN)NC(=O)[C@H](C(C)C)NC(=O)[C@H](CC2CCCCC2)NC(=O)[C@H](CCN)NC1=O` [Compound 3270] ({CH2CO}-[hArg]HDWV[Bip]V[Orn][dL][Dab][Cha]VKC[Dab][Aun]-OH; thioether N-14): the IC50 worked out at 32 nM.

Regarding `CC(C)C[C@H]1NC(=O)[C@H](CCCN)NC(=O)[C@H](C(C)C)NC(=O)[C@H](Cc2ccc(-c3ccccc3)cc2)NC(=O)[C@H](C(C)C)NC(=O)[C@H](Cc2c[nH]c3ccccc23)NC(=O)[C@H](CC(=O)O)NC(=O)[C@H](Cc2c[nH]cn2)NC(=O)[C@H](CCCCNC(=N)N)NC(=O)CSC[C@@H](C(=O)N[C@@H](CCN)C(=O)NCCCCCCCCCCC(=O)O)NC(=O)[C@H](CO)NC(=O)[C@H](C(C)C)NC(=O)[C@H](CC2CCCCC2)NC(=O)[C@H](CCN)NC1=O` [Compound 3271] ({CH2CO}-[hArg]HDWV[Bip]V[Orn][dL][Dab][Cha]VSC[Dab][Aun]-OH; thioether N-14), the 50% inhibitory concentration (IC50) is 31.6 nM.

For the compound `CC(C)C[C@H]1NC(=O)[C@H](CCCN)NC(=O)[C@H](C(C)C)NC(=O)[C@H](Cc2ccc(-c3ccccc3)cc2)NC(=O)[C@H](C(C)C)NC(=O)[C@H](Cc2c[nH]c3ccccc23)NC(=O)[C@H](CC(=O)O)NC(=O)[C@H](Cc2c[nH]cn2)NC(=O)[C@H](CCCNC(=N)N)NC(=O)CSC[C@@H](C(=O)N[C@@H](CCN)C(=O)NCCCCCCCCCCC(=O)O)NC(=O)[C@H](CO)NC(=O)[C@H](C(C)C)NC(=O)[C@H](CC2CCCCC2)NC(=O)[C@H](CCN)NC1=O` [Compound 3272] ({CH2CO}-RHDWV[Bip]V[Orn][dL][Dab][Cha]VSC[Dab][Aun]-OH; thioether N-14), the half-maximal inhibitory concentration (IC50) was found to be 29.8 nM.

As to `CC(C)C[C@H]1NC(=O)[C@H](CCCN)NC(=O)[C@H](C(C)C)NC(=O)[C@H](Cc2ccc(-c3ccccc3)cc2)NC(=O)[C@H](C(C)C)NC(=O)[C@H](Cc2c[nH]c3ccccc23)NC(=O)[C@H](CC(=O)O)NC(=O)[C@H](Cc2c[nH]cn2)NC(=O)[C@H](CCCCNC(=N)N)NC(=O)CSC[C@@H](C(=O)N[C@@H](CCN)C(=O)NCCCCCCCCCCC(=O)O)NC(=O)[C@H](CCC(N)=O)NC(=O)[C@H](C(C)C)NC(=O)[C@H](CC2CCCCC2)NC(=O)[C@H](CCN)NC1=O` [Compound 3273] ({CH2CO}-[hArg]HDWV[Bip]V[Orn][dL][Dab][Cha]VQC[Dab][Aun]-OH; thioether N-14), the IC50 was 27.5 nM.

Take `CC(C)C[C@H]1NC(=O)[C@H](CCCN)NC(=O)[C@H](C(C)C)NC(=O)[C@H](Cc2ccc(-c3ccccc3)cc2)NC(=O)[C@H](C(C)C)NC(=O)[C@H](Cc2c[nH]c3ccccc23)NC(=O)[C@H](CC(=O)O)NC(=O)[C@H](Cc2c[nH]cn2)NC(=O)[C@H](CCCCNC(=N)N)NC(=O)CSC[C@@H](C(=O)N[C@@H](CCN)C(=O)NCCCCCCCCCCC(=O)O)NC(=O)[C@@H]2CC(O)CN2C(=O)[C@H](C(C)C)NC(=O)[C@H](CC2CCCCC2)NC(=O)[C@H](CCN)NC1=O` (stereo partly drawn) [Compound 3274] ({CH2CO}-[hArg]HDWV[Bip]V[Orn][dL][Dab][Cha]V[X19]C[Dab][Aun]-OH; thioether N-14): the IC50 was found to be 411 nM.

For the compound `CC(C)C[C@H]1NC(=O)[C@H](CCCN)NC(=O)[C@H](C(C)C)NC(=O)[C@H](Cc2ccc(-c3ccccc3)cc2)NC(=O)[C@H](C(C)C)NC(=O)[C@H](Cc2c[nH]c3ccccc23)NC(=O)[C@H](CC(=O)O)NC(=O)[C@H](Cc2c[nH]cn2)NC(=O)[C@H](CCCNC(=N)N)NC(=O)CSC[C@@H](C(=O)N[C@@H](CCN)C(=O)NCCCCCCCCCCC(=O)O)NC(=O)[C@@H]2CC(O)CN2C(=O)[C@H](C(C)C)NC(=O)[C@H](CC2CCCCC2)NC(=O)[C@H](CCN)NC1=O` (stereo partly drawn) [Compound 3275] ({CH2CO}-RHDWV[Bip]V[Orn][dL][Dab][Cha]V[X19]C[Dab][Aun]-OH; thioether N-14), the IC50 was 411 nM.

Regarding `CC(C)C[C@H]1NC(=O)[C@H](CCN)NC(=O)[C@H](C(C)C)NC(=O)[C@H](Cc2ccc(-c3ccccc3)cc2)NC(=O)[C@H](C(C)C)NC(=O)[C@H](Cc2c[nH]c3ccccc23)NC(=O)[C@H](CC(=O)O)NC(=O)[C@H](Cc2ccc(OCC(=O)O)cc2)NC(=O)[C@H](CCCCNC(=N)N)NC(=O)CSC[C@@H](C(=O)N[C@H](CC(N)=O)C(=O)NCCCCCCCCCCC(=O)O)NC(=O)[C@H](CCCN)NC(=O)[C@H](C(C)C)NC(=O)[C@H](CC2CCCCC2)NC(=O)[C@H](CCN)NC1=O` [Compound 3277] ({CH2CO}-[hArg]Y(Carboxymethyl)DWV[Bip]V[Dab][dL][Dab][Cha]V[Orn]C[dN][Aun]-OH; thioether N-14), the IC50 was 10.5 nM.

As to `CC(C)C[C@H]1NC(=O)[C@H](CCCN)NC(=O)[C@H](C(C)C)NC(=O)[C@H](Cc2ccc(-c3ccccc3)cc2)NC(=O)[C@H](C(C)C)NC(=O)[C@H](Cc2c[nH]c3ccccc23)NC(=O)[C@H](CC(=O)O)NC(=O)[C@H](Cc2ccc(OCC(=O)O)cc2)NC(=O)[C@H](CCCCNC(=N)N)NC(=O)CSC[C@@H](C(=O)N[C@H](CC(N)=O)C(=O)NCCCCCCCCCCC(=O)O)NC(=O)[C@H](CCCN)NC(=O)[C@H](C(C)C)NC(=O)[C@H](CC2CCCCC2)NC(=O)[C@H](CCN)NC1=O` [Compound 3278] ({CH2CO}-[hArg]Y(Carboxymethyl)DWV[Bip]V[Orn][dL][Dab][Cha]V[Orn]C[dN][Aun]-OH; thioether N-14), the IC50 was 8.7 nM.
